This note sets out measurements from US10988477B2 (Merck Patent GmbH, priority 2018, dated 2021).

Each structure is given as a SMILES string.

Sequence of GCN2 kinase (Q9P2K8 whole entry): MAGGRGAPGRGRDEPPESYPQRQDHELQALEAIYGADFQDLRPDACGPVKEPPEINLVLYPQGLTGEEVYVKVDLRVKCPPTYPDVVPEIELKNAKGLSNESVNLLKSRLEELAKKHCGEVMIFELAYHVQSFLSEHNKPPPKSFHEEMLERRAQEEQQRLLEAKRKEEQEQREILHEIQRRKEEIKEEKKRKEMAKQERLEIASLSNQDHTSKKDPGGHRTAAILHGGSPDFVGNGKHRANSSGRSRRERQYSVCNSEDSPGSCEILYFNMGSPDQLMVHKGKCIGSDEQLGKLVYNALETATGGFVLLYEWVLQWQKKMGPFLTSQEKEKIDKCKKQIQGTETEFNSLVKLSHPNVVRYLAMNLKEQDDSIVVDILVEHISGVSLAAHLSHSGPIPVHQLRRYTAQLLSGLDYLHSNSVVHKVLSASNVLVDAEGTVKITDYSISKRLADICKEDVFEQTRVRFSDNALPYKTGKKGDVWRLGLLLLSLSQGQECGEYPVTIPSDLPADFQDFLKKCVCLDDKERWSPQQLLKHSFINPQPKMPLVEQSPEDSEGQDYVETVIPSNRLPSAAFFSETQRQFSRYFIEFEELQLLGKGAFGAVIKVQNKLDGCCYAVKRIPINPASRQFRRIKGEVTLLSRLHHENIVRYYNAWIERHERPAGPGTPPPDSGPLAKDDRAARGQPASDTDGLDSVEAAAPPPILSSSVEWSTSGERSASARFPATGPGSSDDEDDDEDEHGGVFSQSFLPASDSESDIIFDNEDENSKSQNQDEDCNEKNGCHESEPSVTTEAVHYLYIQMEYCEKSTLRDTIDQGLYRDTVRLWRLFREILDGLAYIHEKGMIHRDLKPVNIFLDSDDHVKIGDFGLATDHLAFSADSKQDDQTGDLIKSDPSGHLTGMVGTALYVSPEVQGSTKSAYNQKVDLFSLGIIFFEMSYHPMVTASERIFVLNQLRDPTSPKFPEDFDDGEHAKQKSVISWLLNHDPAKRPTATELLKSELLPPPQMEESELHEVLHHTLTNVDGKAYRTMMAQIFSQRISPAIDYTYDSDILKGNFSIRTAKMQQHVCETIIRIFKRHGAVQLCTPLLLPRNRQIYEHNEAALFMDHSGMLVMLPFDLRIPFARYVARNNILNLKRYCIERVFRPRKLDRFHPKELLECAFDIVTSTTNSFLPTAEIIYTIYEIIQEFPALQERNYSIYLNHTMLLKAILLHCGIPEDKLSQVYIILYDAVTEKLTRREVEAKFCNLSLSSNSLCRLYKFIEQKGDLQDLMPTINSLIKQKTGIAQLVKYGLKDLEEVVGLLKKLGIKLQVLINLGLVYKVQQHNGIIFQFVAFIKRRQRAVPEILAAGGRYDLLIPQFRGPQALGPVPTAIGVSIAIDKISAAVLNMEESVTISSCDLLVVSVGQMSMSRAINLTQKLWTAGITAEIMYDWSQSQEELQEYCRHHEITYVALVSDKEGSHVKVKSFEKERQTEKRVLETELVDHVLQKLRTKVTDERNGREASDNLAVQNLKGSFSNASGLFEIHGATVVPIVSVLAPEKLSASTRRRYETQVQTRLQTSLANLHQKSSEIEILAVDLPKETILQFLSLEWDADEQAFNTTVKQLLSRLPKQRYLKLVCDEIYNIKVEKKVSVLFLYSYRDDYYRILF

In one assay the target is GCN2 kinase (Homo sapiens, UniProt Q9P2K8). The experiment in a line: GCN2 enzyme inhibition assay (Transcreener ADP2 fluorescence polarization). Format: biochemical. Particulars: Enzyme activity for compounds of Formula IV; Ki(app), 280 μM ATP, 25° C. The procedure, abridged:
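4 nM GCN2 + 200 μM (RS)7 + compound (0–8 μM), 10 min preinc.; start with ATP (280 μM final); 1 h, 25 °C; pH 7.5 Tris/NaCl/MgCl2/DTT; ADP FP readout; IC50, Ki(app) via tight-binding fit.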
(Fluorescence polarisation rises when a labelled molecule tumbles more slowly, as on binding a larger partner.)
The compound `FC(F)(F)c1cn2c(-c3ccnc(N4CCCC(c5c[nH]cn5)C4)n3)cnc2cn1` (stereo not shown) [IV-484, 3-(2-(3-(1H-Imidazol-4-yl)piperidin-1-yl)pyrimidin-4-yl)-6-(trifluoromethyl)imidazo[1,2-a]pyrazine] registered a Ki of 10 to 100 nM.

With `O=C(N[C@H]1CCCN(c2ccnc(-c3cnc4cnc(C(F)(F)F)cn34)n2)C1)c1cc[nH]n1` [IV-737], the Ki is greater than 1000 nM.

In turn, `O=C1NCCN1C1CCCN(c2ccnc(-c3cnc4cnc(C(F)(F)F)cn34)n2)C1` (stereo not shown) [IV-584, 1-(1-(2-(6-(Trifluoromethyl)imidazo[1,2-a]pyrazin-3-yl)pyrimidin-4-yl)piperidin-3-yl)imidazolidin-2-one] had a Ki of 100 to 1000 nM.

On to `FC(F)(F)c1cn2c(-c3nccc(N4CCC(c5ccncc5)C4)n3)cnc2cn1` (stereo not shown) [IV-550, 3-(4-(3-(Pyridin-4-yl)pyrrolidin-1-yl)pyrimidin-2-yl)-6-(trifluoromethyl)imidazo[1,2-a]pyrazine], for which the Ki lay in the range of 100 to 1000 nM.

As for `FC(F)(F)c1cn2c(-c3nccc(N4CCN5CCOCC5C4)n3)cnc2cn1` (stereo not shown) [IV-504, 8-(2-(6-(Trifluoromethyl)imidazo[1,2-a]pyrazin-3-yl)pyrimidin-4-yl)octahydropyrazino[2,1-a][1,4]oxazine], the Ki fell in the range of 100 to 1000 nM.

Regarding `CC(=O)N1CCN(c2ccnc(-c3cnc4cnc(-c5cccc(CO)c5)cn34)n2)CC1` [IV-308, 1-(4-(2-(6-(3-(Hydroxymethyl)phenyl)imidazo[1,2-a]pyrazin-3-yl)pyrimidin-4-yl)piperazin-1-yl)ethan-1-one], the Ki was in the range of 100 to 1000 nM.

Compound `NC(=O)c1cn2c(-c3nccc(N4CCN5C(=O)CCCC5C4)n3)cnc2cn1` (single isomer, unassigned) [IV-273, 3-(4-(6-Oxooctahydro-2H-pyrido[1,2-a]pyrazin-2-yl)pyrimidin-2-yl)imidazo[1,2-a]pyrazine-6-carboxamide] returned a Ki of 100 to 1000 nM.

The compound `Cn1cc(NC(=O)[C@H]2CCCN(c3ccnc(-c4cnc5cnc(C(F)(F)F)cn45)n3)C2)cn1` [IV-739] gave a Ki greater than 1000 nM.

Consider `O=C1CN(C2CCN(c3ccnc(-c4cnc5cnc(C(F)(F)F)cn45)n3)C2)CCN1` (stereo not shown) [IV-602, 4-(1-(2-(6-(Trifluoromethyl)imidazo[1,2-a]pyrazin-3-yl)pyrimidin-4-yl)pyrrolidin-3-yl)piperazin-2-one], for which the Ki lay in the range of 100 to 1000 nM.

`FC(F)(F)c1cn2c(-c3nccc(N4CCCC(n5ccnn5)C4)n3)cnc2cn1` (stereo not shown) [IV-600, 3-(4-(3-(1H-1,2,3-Triazol-1-yl)piperidin-1-yl)pyrimidin-2-yl)-6-(trifluoromethyl)imidazo[1,2-a]pyrazine] gave a Ki of 100 to 1000 nM.

Consider `OCC1CCCCN1c1ccnc(-c2cnc3cnc(C(F)(F)F)cn23)n1` (stereo not shown) [IV-440, (1-(2-(6-(Trifluoromethyl)imidazo[1,2-a]pyrazin-3-yl)pyrimidin-4-yl)piperidin-2-yl)methanol], for which the Ki fell in the range of 100 to 1000 nM.

`C[C@H]1NCCN(c2ccnc(-c3cnc4cnc(Br)cn34)n2)[C@H]1c1cn[nH]c1` (racemic) [IV-342, Cis-6-Bromo-3-(4-(3-methyl-2-(1H-pyrazol-4-yl)piperazin-1-yl)pyrimidin-2-yl)imidazo[1,2-a]pyrazine] displayed a Ki of 100 to 1000 nM.

Regarding `O=C1CCCC2CN(c3ccnc(-c4cnc5cnc(Cl)cn45)n3)CCN12` (single isomer, unassigned) [IV-293, 2-(2-(6-Chloroimidazo[1,2-a]pyrazin-3-yl)pyrimidin-4-yl)octahydro-6H-pyrido[1,2-a]pyrazin-6-one], the Ki lay within 10 to 100 nM.

As to `FC(F)(F)c1cn2c(-c3nccc(N4CCCC(c5c[nH]cn5)C4)n3)cnc2cn1` (stereo not shown) [IV-325, 3-(4-(3-(1H-Imidazol-4-yl)piperidin-1-yl)pyrimidin-2-yl)-6-(trifluoromethyl)imidazo[1,2-a]pyrazine], the Ki was in the range of 10 to 100 nM.

`CC1(C(N)=O)CCCN(c2ccnc(-c3cnc4cnc(C(F)(F)F)cn34)n2)C1` (stereo not shown) [IV-539, 3-Methyl-1-(2-(6-(trifluoromethyl)imidazo[1,2-a]pyrazin-3-yl)pyrimidin-4-yl)piperidine-3-carboxamide] yielded a Ki of 100 to 1000 nM.

Compound `NC(=O)c1cn2c(-c3nccc(N4CC5(CCOC5)C4)n3)cnc2cn1` [IV-270, 3-(4-(6-Oxa-2-azaspiro[3.4]octan-2-yl)pyrimidin-2-yl)imidazo[1,2-a]pyrazine-6-carboxamide] gave a Ki of 100 to 1000 nM.

With `FC(F)(F)c1cn2c(-c3nccc(N4CCCC(n5cncn5)C4)n3)cnc2cn1` (stereo not shown) [IV-547, 3-(4-(3-(1H-1,2,4-Triazol-1-yl)piperidin-1-yl)pyrimidin-2-yl)-6-(trifluoromethyl)imidazo[1,2-a]pyrazine], the Ki fell in the range of 100 to 1000 nM.

On to `CC1CC(C)C(C)N(c2ccnc(-c3cnc4cnc(C(F)(F)F)cn34)n2)C1` (stereo not shown) [IV-643, 6-(Trifluoromethyl)-3-(4-(2,3,5-trimethylpiperidin-1-yl)pyrimidin-2-yl)imidazo[1,2-a]pyrazine], for which the Ki lay within 100 to 1000 nM.

In the case of `CC1C(c2cn[nH]c2)OCCN1c1ccnc(-c2cnc3cnc(Cl)cn23)n1` (single isomer, unassigned) [IV-244, 4-(2-(6-Chloroimidazo[1,2-a]pyrazin-3-yl)pyrimidin-4-yl)-3-methyl-2-(1H-pyrazol-4-yl)morpholine], the Ki lay within 100 to 1000 nM.

`FC(F)(F)c1cn2c(-c3nccc(N4CC(CN5CCC5)CC(c5cn[nH]c5)C4)n3)cnc2cn1` (stereo not shown) [IV-681, 3-(4-(3-(Azetidin-1-ylmethyl)-5-(1H-pyrazol-4-yl)piperidin-1-yl)pyrimidin-2-yl)-6-(trifluoromethyl)imidazo[1,2-a]pyrazine] gave a Ki of 10 to 100 nM.

For the compound `Cc1n[nH]c(C)c1C1CCCN(c2ccnc(-c3cnc4cnc(C(F)(F)F)cn34)n2)C1` (single isomer, unassigned) [IV-476, 3-(4-(3-(3,5-Dimethyl-1H-pyrazol-4-yl)piperidin-1-yl)pyrimidin-2-yl)-6-(trifluoromethyl)imidazo[1,2-a]pyrazine], the Ki is less than 10 nM.

Staying with this assay, now noted: compounds of Formula II; 280 μM ATP, 4 nM GCN2 kinase.
`C[C@@H]1C[C@H](N=S(C)(C)=O)CN(c2cc(-c3cnc4ccc(N5CC(F)C5)nn34)ncn2)C1` [II-764, (((3S,5R)-1-(6-(6-(3-fluoroazetidin-1-yl)imidazo[1,2-b]pyridazin-3-yl)pyrimidin-4-yl)-5-methylpiperidin-3-yl)imino)dimethyl-16-sulfanone] came in with a half-maximal inhibitory concentration (IC50) of 10 to 1000 nM.

`COCCOC1CC(CNS(C)(=O)=O)CN(c2cc(-c3cnc4ccc(C(F)F)nn34)ncn2)C1` (stereo not shown) [II-550, N-((1-(6-(6-(Difluoromethyl)imidazo[1,2-b]pyridazin-3-yl)pyrimidin-4-yl)-5-(2-methoxyethoxy)piperidin-3-yl)methyl)methanesulfonamide] showed a Ki of less than 10 nM.

As for `CC1C(CNS(C)(=O)=O)C(F)(F)C(C)CN1c1cc(-c2cnc3ccc(C(F)F)nn23)ncn1` (single isomer, unassigned) [II-467, N-((1-(6-(6-(Difluoromethyl)imidazo[1,2-b]pyridazin-3-yl)pyrimidin-4-yl)-4,4-difluoro-2,5-dimethylpiperidin-3-yl)methyl)methanesulfonamide], the Ki was less than 10 nM.

Still in this assay, the particulars now being: compounds of Formula V; 280 μM ATP, 4 nM GCN2 kinase.
Compound `CS(C)(=O)=NC1CCCN(c2ccnc(-c3cnc4sc(C(F)(F)F)cn34)n2)C1` (stereo not shown) [Compound V-9, Dimethyl((1-(2-(2-(trifluoromethyl)imidazo[2,1-b]thiazol-5-yl)pyrimidin-4-yl)piperidin-3-yl)imino)-λ^6-sulfanone] registered a Ki of 100 to 1000 nM.

A word on the IC50: it is the concentration needed to halve the response being measured. Low readings indicate higher potency, high ones lower potency.
